Results: ChEMBL document CHEMBL4002609, “Sulfonamide-based non-alkyne LpxC inhibitors as Gram-negative antibacterial agents” (Bioorg Med Chem Lett, 2017)
In brackets after ≈: the same amount, converted by molar mass.

What was measured:
[1] = molecular target: T1, UDP-3-O-acyl-N-acetylglucosamine deacetylase (Escherichia coli K-12, UniProt P0A725); assay: Inhibition of Escherichia coli LpxC using UDP-3-O-(R-3-hydroxymyristoyl)GlcNAc as substrate after 60 mins by OPA reagent based fluorescence assay
T1 sequence (P0A725 whole entry): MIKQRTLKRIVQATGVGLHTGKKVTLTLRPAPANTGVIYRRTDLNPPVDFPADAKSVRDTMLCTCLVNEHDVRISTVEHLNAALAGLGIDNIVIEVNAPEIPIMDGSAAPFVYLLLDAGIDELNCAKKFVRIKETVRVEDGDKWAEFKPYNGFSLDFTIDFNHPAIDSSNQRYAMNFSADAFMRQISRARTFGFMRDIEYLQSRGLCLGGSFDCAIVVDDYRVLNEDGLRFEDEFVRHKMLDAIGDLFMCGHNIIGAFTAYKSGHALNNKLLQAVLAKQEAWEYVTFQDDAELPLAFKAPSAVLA

Escherichia coli = assay: Antibacterial activity against Escherichia coli TG1 by agar dilution method; format: functional
Klebsiella pneumoniae = assay: Antibacterial activity against Klebsiella pneumoniae ATCC 13883 by agar dilution method; format: functional
Pseudomonas aeruginosa = assay: Antibacterial activity against Pseudomonas aeruginosa PAO 4009 by agar dilution method; format: functional
Staphylococcus aureus = assay: Antibacterial activity against Staphylococcus aureus ATCC 29213 by agar dilution method; format: functional
Cytochrome P450 1A2 = molecular target: T2, Cytochrome P450 1A2 (Homo sapiens, UniProt P05177); assay: Time-dependent inhibition of CYP1A2 (unknown origin); format: ADME
T2 sequence (P05177 whole entry): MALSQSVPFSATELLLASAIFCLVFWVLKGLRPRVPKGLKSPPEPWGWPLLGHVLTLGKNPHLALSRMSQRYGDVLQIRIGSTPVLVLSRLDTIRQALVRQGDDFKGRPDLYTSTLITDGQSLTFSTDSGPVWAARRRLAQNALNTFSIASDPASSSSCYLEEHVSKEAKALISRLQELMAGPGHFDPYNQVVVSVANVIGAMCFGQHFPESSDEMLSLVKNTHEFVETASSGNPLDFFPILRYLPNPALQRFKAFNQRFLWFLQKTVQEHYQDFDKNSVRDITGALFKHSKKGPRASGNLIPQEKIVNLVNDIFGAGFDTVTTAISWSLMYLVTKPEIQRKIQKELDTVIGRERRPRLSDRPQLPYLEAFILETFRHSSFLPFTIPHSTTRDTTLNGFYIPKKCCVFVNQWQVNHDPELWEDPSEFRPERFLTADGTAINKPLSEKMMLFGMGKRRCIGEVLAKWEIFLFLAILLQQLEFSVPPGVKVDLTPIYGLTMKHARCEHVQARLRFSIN

Cytochrome P450 2C9 = Cytochrome P450 2C9 (Homo sapiens, UniProt P11712); assay: Time-dependent inhibition of CYP2C9 (unknown origin); format: ADME
Cytochrome P450 2C19 = Cytochrome P450 2C19 (Homo sapiens, UniProt P33261); assay: Time-dependent inhibition of CYP2C19 (unknown origin); format: ADME
Cytochrome P450 2D6 = Cytochrome P450 2D6 (Homo sapiens, UniProt P10635); assay: Time-dependent inhibition of CYP2D6 (unknown origin); format: ADME
Cytochrome P450 3A4 = Cytochrome P450 3A4 (Homo sapiens, UniProt P08684); assay: Time-dependent inhibition of CYP3A4 (unknown origin); format: ADME
Chain of Cytochrome P450 3A4 (P08684 whole entry): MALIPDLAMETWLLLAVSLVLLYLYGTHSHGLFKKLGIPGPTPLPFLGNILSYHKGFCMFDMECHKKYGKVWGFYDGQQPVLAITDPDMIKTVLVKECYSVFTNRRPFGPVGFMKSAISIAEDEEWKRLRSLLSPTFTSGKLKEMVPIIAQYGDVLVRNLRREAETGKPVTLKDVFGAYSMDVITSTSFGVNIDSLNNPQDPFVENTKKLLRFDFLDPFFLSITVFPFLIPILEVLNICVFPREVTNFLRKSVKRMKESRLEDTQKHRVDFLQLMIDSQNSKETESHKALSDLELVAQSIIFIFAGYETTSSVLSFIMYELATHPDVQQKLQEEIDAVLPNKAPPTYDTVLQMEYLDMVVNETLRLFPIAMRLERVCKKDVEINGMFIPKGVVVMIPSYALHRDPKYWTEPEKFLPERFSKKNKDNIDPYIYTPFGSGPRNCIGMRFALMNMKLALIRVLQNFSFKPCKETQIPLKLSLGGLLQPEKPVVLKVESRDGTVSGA

Chain of Cytochrome P450 2D6 (P10635 whole entry): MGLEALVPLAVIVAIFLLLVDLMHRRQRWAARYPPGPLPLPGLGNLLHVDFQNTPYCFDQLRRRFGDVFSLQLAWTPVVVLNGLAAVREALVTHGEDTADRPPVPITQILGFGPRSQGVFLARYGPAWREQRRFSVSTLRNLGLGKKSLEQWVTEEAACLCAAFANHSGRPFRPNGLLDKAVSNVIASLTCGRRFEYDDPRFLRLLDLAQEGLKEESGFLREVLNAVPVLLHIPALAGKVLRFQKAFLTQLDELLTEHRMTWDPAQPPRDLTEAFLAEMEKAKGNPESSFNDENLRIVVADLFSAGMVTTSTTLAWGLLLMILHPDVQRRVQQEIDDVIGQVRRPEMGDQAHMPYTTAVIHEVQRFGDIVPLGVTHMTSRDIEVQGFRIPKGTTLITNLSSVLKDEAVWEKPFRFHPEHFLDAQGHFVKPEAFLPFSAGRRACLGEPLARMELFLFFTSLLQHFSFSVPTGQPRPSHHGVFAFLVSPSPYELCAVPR
Chain of Cytochrome P450 2C19 (P33261 whole entry): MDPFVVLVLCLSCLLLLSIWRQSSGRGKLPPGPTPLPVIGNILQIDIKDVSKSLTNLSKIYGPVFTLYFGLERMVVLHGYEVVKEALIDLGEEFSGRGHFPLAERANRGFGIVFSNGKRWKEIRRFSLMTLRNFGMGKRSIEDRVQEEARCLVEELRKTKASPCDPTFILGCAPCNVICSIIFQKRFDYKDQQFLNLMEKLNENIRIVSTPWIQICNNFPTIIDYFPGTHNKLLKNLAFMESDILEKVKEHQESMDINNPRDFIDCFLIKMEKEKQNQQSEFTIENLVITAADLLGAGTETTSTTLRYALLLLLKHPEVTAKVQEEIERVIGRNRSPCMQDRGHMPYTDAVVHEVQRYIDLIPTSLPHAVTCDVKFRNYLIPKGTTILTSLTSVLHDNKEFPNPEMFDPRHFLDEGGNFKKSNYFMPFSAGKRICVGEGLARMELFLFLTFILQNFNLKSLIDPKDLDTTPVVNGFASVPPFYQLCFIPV
Chain of Cytochrome P450 2C9 (P11712 whole entry): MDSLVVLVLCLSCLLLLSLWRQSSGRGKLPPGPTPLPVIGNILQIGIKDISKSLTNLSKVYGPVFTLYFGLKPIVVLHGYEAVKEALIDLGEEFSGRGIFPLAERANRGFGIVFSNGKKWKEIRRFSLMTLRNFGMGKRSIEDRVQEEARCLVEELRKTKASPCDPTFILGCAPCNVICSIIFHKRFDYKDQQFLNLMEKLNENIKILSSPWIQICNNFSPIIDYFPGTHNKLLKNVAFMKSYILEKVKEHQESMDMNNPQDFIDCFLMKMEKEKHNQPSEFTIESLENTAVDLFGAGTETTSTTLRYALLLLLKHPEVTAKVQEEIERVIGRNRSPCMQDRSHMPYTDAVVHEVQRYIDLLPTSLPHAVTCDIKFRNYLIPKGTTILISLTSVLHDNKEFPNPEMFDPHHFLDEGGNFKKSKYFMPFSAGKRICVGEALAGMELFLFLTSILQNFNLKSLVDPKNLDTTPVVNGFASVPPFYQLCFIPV

| Compound | IC50 [1] [nM] | MIC (Escherichia coli) [µg/mL] | MIC (Klebsiella pneumoniae) [µg/mL] | MIC (Pseudomonas aeruginosa) [µg/mL] | MIC (Staphylococcus aureus) [µg/mL] | TDI (Cytochrome P450 1A2) | TDI (Cytochrome P450 2C9) | TDI (Cytochrome P450 2C19) | TDI (Cytochrome P450 2D6) | TDI (Cytochrome P450 3A4) |
| --- | --- | --- | --- | --- | --- | --- | --- | --- | --- | --- |
| CC(C)(NS(C)(=O)=O)[C@H](NC(=O)c1ccc(-c2cc3cncnc3o2)cc1)C(=O)NO | > 10000 | 128 (≈ 286 µM) | > 128 | 32 (≈ 71.5 µM) | > 128 | – | – | – | – | – |
| CC(C)(NS(C)(=O)=O)[C@H](NC(=O)c1ccc(-c2cc3ccc(F)cc3o2)cc1)C(=O)NO | 79 | 0.25 (≈ 0.539 µM) | 1 (≈ 2.16 µM) | 0.5 (≈ 1.08 µM) | 64 (≈ 138 µM) | – | – | – | – | – |
| Cc1ccc(-c2ccc(C(=O)N[C@H](C(=O)NO)C(C)(C)NS(C)(=O)=O)nc2)cc1 | > 10000 | 32 (≈ 76.1 µM) | > 128 | 32 (≈ 76.1 µM) | – | – | – | – | – | – |
| CC(C)(NS(C)(=O)=O)[C@H](NC(=O)c1ccc(-c2cc3ccncc3o2)cc1)C(=O)NO | 1400 | 8 (≈ 17.9 µM) | 128 (≈ 287 µM) | 8 (≈ 17.9 µM) | > 128 | – | – | – | – | – |
| Cc1ccc(-c2ccc(C(=O)N[C@H](C(=O)NO)C(C)(C)NS(C)(=O)=O)cc2)cc1 | 420 | 1 (≈ 2.38 µM) | 4 (≈ 9.54 µM) | 0.5 (≈ 1.19 µM) | > 128 | Active | Active | Active | Active | Active |
| CC(C)(NS(C)(=O)=O)[C@H](NC(=O)c1ccc(-c2cc3cc4c(cc3o2)OCO4)cc1)C(=O)NO | 12 | 0.063 (≈ 0.129 µM) | 0.5 (≈ 1.02 µM) | 0.5 (≈ 1.02 µM) | > 32 | – | – | – | – | – |
| Cc1ncc(-c2ccc(C(=O)N[C@H](C(=O)NO)C(C)(C)NS(C)(=O)=O)cc2)cn1 | > 10000 | > 128 | > 128 | > 128 | – | – | – | – | – | – |
| CC(C)(NS(C)(=O)=O)[C@H](NC(=O)c1ccc(-c2cc3ccc(OCCO)cc3o2)cc1)C(=O)NO | 10 | 1 (≈ 1.98 µM) | 8 (≈ 15.8 µM) | 4 (≈ 7.91 µM) | > 128 | – | – | – | – | – |
| CC(C)(NS(C)(=O)=O)[C@H](NC(=O)c1ccc(-c2ccccc2)cc1)C(=O)NO | 1200 | 2 (≈ 4.93 µM) | 64 (≈ 158 µM) | 1 (≈ 2.47 µM) | – | – | – | – | – | – |
| Cc1cnc(-c2ccc(C(=O)N[C@H](C(=O)NO)C(C)(C)NS(C)(=O)=O)cc2)nc1 | > 10000 | 64 (≈ 152 µM) | > 128 | 16 (≈ 38 µM) | – | – | – | – | – | – |
| CC(C)(NS(C)(=O)=O)[C@H](NC(=O)c1ccc(-c2nc3ccccc3o2)cc1)C(=O)NO | 410 | 1 (≈ 2.24 µM) | 8 (≈ 17.9 µM) | 4 (≈ 8.96 µM) | > 128 | – | – | – | – | – |
| CN(C)CCOc1ccc2cc(-c3ccc(C(=O)N[C@H](C(=O)NO)C(C)(C)NS(C)(=O)=O)cc3)oc2c1 | 22 | 4 (≈ 7.51 µM) | 32 (≈ 60.1 µM) | 8 (≈ 15 µM) | > 128 | – | – | – | – | – |
| CC(C)(NS(C)(=O)=O)[C@H](NC(=O)c1ccc(-c2cc3ccc(O)cc3o2)cc1)C(=O)NO | 140 | 1 (≈ 2.17 µM) | 8 (≈ 17.3 µM) | 2 (≈ 4.33 µM) | > 64 | – | – | – | – | – |
| CC(C)(NS(C)(=O)=O)[C@H](NC(=O)c1ccc(-c2cc3ccccn3n2)cc1)C(=O)NO | > 10000 | 64 (≈ 144 µM) | > 128 | 4 (≈ 8.98 µM) | > 128 | – | – | – | – | – |
| C[C@@H](O)[C@H](NC(=O)c1ccc(C#Cc2ccc(CN3CCOCC3)cc2)cc1)C(=O)NO | – | 0.125 (≈ 0.286 µM) | 0.25 (≈ 0.571 µM) | 0.5 (≈ 1.14 µM) | > 128 | – | – | – | – | – |
| CC(C)(NS(C)(=O)=O)[C@H](NC(=O)c1ccc(-c2cc3ccccc3o2)cc1)C(=O)NO | 81 | 0.25 (≈ 0.561 µM) | 1 (≈ 2.24 µM) | 1 (≈ 2.24 µM) | 64 (≈ 144 µM) | – | – | – | – | – |
| CC(C)(NS(C)(=O)=O)[C@H](NC(=O)c1ccc(-c2cc3cc(F)ccc3o2)cc1)C(=O)NO | 100 | 0.25 (≈ 0.539 µM) | 1 (≈ 2.16 µM) | 0.5 (≈ 1.08 µM) | 32 (≈ 69 µM) | – | – | – | – | – |
| Cc1ccc(-c2ccc(C(=O)N[C@H](C(=O)NO)C(C)(C)NS(C)(=O)=O)cn2)cc1 | 1500 | 8 (≈ 19 µM) | 64 (≈ 152 µM) | 4 (≈ 9.51 µM) | – | – | – | – | – | – |
